# What was measured:
# [1] = Percutaneous absorption / systemically bioavailable dose from cream; format: in vivo; details: cream 0.05-0.1%
# [2] = test system: ulcerous cholitis (colon); experiment: Animal models of ulcerous cholitis; format: in vivo, Wistar rats; details: oral, daily, 1 mg/kg, in sesame oil 2 mg/mL
# Experimental: Dealing with the activity of the compounds object of the present invention, on the inflammatory diseases of the low intestine, some compounds, namely V, VI, X and XI, were tested in animal models of ulcerous cholitis (Wallace J. L. et al., Eur. J. Pharmacol. 257, 249 (1994); Renter B. K. et al. J. Clin. Invest. 98, 2076-2085 (1996).
# In particular, compound VI, when administered daily by oral route to Wistar rats, dissolved in sesame oil at the concentration of 2 mg/mL , at the dose of 1 mg/kg, did show a good activity in favouring colon ulcers repair, in re-establishing the normal thickness of the intestinal wall and in decreasing the granulocytes infiltration proper of an inflammatory condition.
Structure (SMILES),"maximum systemically bioavailable dose ([1]; about 50 g, whole body surface, 25-50 mg) [mg/kg]","Fa ([1]; in vivo, topical or ocular, of the applied dose) [%]",decreasing the granulocytes infiltration [2],favouring colon ulcers repair [2],re-establishing the normal thickness of the intestinal wall [2]
CCc1ccccc1-c1n[nH]c(-c2cccc(OC)c2)n1 [Compound XIII],0.05 to 0.1,~10,,,
COc1cccc(-c2nc(-c3ccccc3CO)n[nH]2)c1 [VI],,,good activity,good activity,good activity

# From patent US6323230A, “Use of nitrogen heterocyclic aromatic derivatives in the topical treatment of the epithelial tissues diseases” (Geange Ltd., priority 1997, dated 2001)
